From PubChem BioAssay AID1845196 (Molecular Pharmacology Branch, DTP, NCI, 2023)
“And” between values parts separate entries of the source, which are not always exact repeats. Identical values can stand only once.

Tested on: 292921-168-R tumor spheroid viability
Experiment: Anticancer human tumor 292921-168-R patient-derived pancreatic carcinoma cell line growth inhibition
Conditions: spheroids with HUVEC and MSC; for viability, T/C: stronger effect = lower value
How it was run: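 Complex spheroids of malignant cells with endothelial cells and mesenchymal stem cells; agents alone or combined, from near clinical Cmax (or 10 microM if unknown) down in half-log steps, 0.25% DMSO final.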
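Further: spheroids exposed to compounds for 7 days.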

With `CC(C)n1c(=O)n(C)c2cnc3cc(F)c(-c4ccc(OCCCN5CCCCC5)nc4)cc3c21` + COc1cc2c(cc1O)CCNC21CSC2c3c(OC(C)=O)c(C)c4c(c3C(COC1=O)N1C(O)C3Cc5cc(C)c(OC)c(O)c5C(C21)N3C)OCO4 the IC50 (curve of first compound, second compound 30 pM) was 3.53 µM, the IC50 (curve of first compound, second compound 94.9 pM) was less than 0.0316 µM and the IC50 (curve of first compound, second compound 0.0003 µM) was less than 0.0316 µM. It also gave an IC50 (curve of first compound, second compound 0.000949 µM) of less than 0.0316 µM, an IC50 (curve of first compound, second compound 0.003 µM) of less than 0.0316 µM and a viability, T/C (second compound 30 pM, first compound 0.0316 µM) of 52.2%. The viability, T/C (second compound 30 pM, first compound 0.1 µM) was 64.9%, the viability, T/C (second compound 30 pM, first compound 0.316 µM) was 60% and the viability, T/C (second compound 30 pM, first compound 1 µM) was 64%. The viability, T/C (second compound 30 pM, first compound 3.16 µM) was 49.6%, the viability, T/C (second compound 30 pM, first compound 10 µM) was 28.1% and the viability, T/C (second compound 94.9 pM, first compound 0.0316 µM) was 39.2%. The viability, T/C (second compound 94.9 pM, first compound 0.1 µM) was 36%, the viability, T/C (second compound 94.9 pM, first compound 0.316 µM) was 39% and the viability, T/C (second compound 94.9 pM, first compound 1 µM) was 35.8%. The viability, T/C (second compound 94.9 pM, first compound 3.16 µM) was 38.6%, the viability, T/C (second compound 94.9 pM, first compound 10 µM) was 23.9% and the viability, T/C (second compound 0.0003 µM, first compound 0.0316 µM) was 20.9%. For the same molecule, the viability, T/C (second compound 0.0003 µM, first compound 0.1 µM) was 21.3%, the viability, T/C (second compound 0.0003 µM, first compound 0.316 µM) was 20.8% and the viability, T/C (second compound 0.0003 µM, first compound 1 µM) was 24.8%. For the same molecule, the viability, T/C (second compound 0.0003 µM, first compound 3.16 µM) was 29.4%, the viability, T/C (second compound 0.0003 µM, first compound 10 µM) was 19.5% and the viability, T/C (second compound 0.000949 µM, first compound 0.0316 µM) was 2.03%. It also gave a viability, T/C (second compound 0.000949 µM, first compound 0.1 µM) of 2.57%, a viability, T/C (second compound 0.000949 µM, first compound 0.316 µM) of 2.94% and a viability, T/C (second compound 0.000949 µM, first compound 1 µM) of 4.97%. The viability, T/C (second compound 0.000949 µM, first compound 3.16 µM) was 7.02%, the viability, T/C (second compound 0.000949 µM, first compound 10 µM) was 5.36% and the viability, T/C (second compound 0.003 µM, first compound 0.0316 µM) was 0.16%. It also gave a viability, T/C (second compound 0.003 µM, first compound 0.1 µM) of 0.18%, a viability, T/C (second compound 0.003 µM, first compound 0.316 µM) of 0.2% and a viability, T/C (second compound 0.003 µM, first compound 1 µM) of 0.15%. For the same molecule, the viability, T/C (second compound 0.003 µM, first compound 3.16 µM) was 0.13% and the viability, T/C (second compound 0.003 µM, first compound 10 µM) was 0.22%.

In the case of `Cc1sc2c(c1C)C(c1ccc(Cl)cc1)=NC(CC(=O)Nc1ccc(O)cc1)c1nnc(C)n1-2` (stereo not drawn), the viability, T/C (compound 0.00949 µM) is reported as 119% (2×) and 110%, the viability, T/C (compound 0.03 µM) is reported as 124% and 90% and 120% and the viability, T/C (compound 0.0949 µM) is reported as 132% and 104% and 113%. The viability, T/C (compound 0.3 µM) was 114% and 102% and 124%, the viability, T/C (compound 0.949 µM) was 92.9% and 71.4% and 81.5% and the viability, T/C (compound 3 µM) was 49.3% and 34.5% and 57.9%. For the same molecule, the IC50 (curve of compound) was 2.95 µM and 1.85 µM and > 3 µM.

With `Cn1nnc2c(C(N)=O)ncn2c1=O` the viability, T/C (compound 1 µM) was 94.3% [middle of 10 runs], the viability, T/C (compound 3.16 µM) was 95.5% [middle of 10 runs] and the viability, T/C (compound 10 µM) was 94.8% [middle of 10 runs]. For the same molecule, the viability, T/C (compound 31.6 µM) was 90.8% [middle of 10 runs], the viability, T/C (compound 100 µM) was 85.8% [middle of 10 runs] and the IC50 (compound alone, run of 10/17/2019) was greater than 100 µM.
